# Test results taken from PubChem BioAssay (NCI).
#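 Following 48 hours of exposure in 96-well plates, responses at five concentrations were used to interpolate endpoints linearly. GI50 = concentration required for 50% inhibition of growth. TGI: concentration producing complete growth inhibition.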
# Columns and labels:
# Test in all cases: NCI anticancer screen, dose series, 48 h
# 786-0 renal = system: 786-0 renal
# A498 renal = system: A498 renal
# A549 NSCLC = system: A549 NSCLC
# ACHN renal = system: ACHN renal
# BT-549 breast = system: BT-549 breast
# CCRF-CEM leukemia = system: CCRF-CEM leukemia
# COLO 205 colon = system: COLO 205 colon
# DU-145 prostate = system: DU-145 prostate
# HCT-116 colon = system: HCT-116 colon
# HL-60(TB) leukemia = system: HL-60(TB) leukemia
# HOP-62 NSCLC = system: HOP-62 NSCLC
# HOP-92 NSCLC = system: HOP-92 NSCLC
# HT29 colon = system: HT29 colon
# K-562 leukemia = system: K-562 leukemia
# KM12 colon = system: KM12 colon
# LOX IMVI melanoma = system: LOX IMVI melanoma
# M14 melanoma = system: M14 melanoma
# MALME-3M melanoma = system: MALME-3M melanoma
# MCF7 breast = system: MCF7 breast
# MDA-MB-231 breast = system: MDA-MB-231 breast
# MDA-MB-435 = system: MDA-MB-435
# NCI-H226 lung = system: NCI-H226 lung
# NCI-H23 lung = system: NCI-H23 lung
# NCI-H522 lung = system: NCI-H522 lung
# OVCAR-3 ovarian = system: OVCAR-3 ovarian
# OVCAR-4 ovarian = system: OVCAR-4 ovarian
# OVCAR-5 ovarian = system: OVCAR-5 ovarian
# PC-3 prostate = system: PC-3 prostate
# RPMI-8226 leukemia = system: RPMI-8226 leukemia
# RXF 393 renal = system: RXF 393 renal
# SF-268 CNS = system: SF-268 CNS
# SF-295 CNS = system: SF-295 CNS
# SF-539 CNS = system: SF-539 CNS
# SK-MEL-2 melanoma = system: SK-MEL-2 melanoma
# SK-MEL-28 melanoma = system: SK-MEL-28 melanoma
# SK-MEL-5 melanoma = system: SK-MEL-5 melanoma
# SK-OV-3 ovarian = system: SK-OV-3 ovarian
# SNB-19 CNS = system: SNB-19 CNS
# SNB-75 CNS = system: SNB-75 CNS
# SW-620 colon = system: SW-620 colon
# T-47D breast = system: T-47D breast
# TK-10 renal = system: TK-10 renal
# U251 CNS = system: U251 CNS
# UACC-257 melanoma = system: UACC-257 melanoma
# UACC-62 melanoma = system: UACC-62 melanoma
# UO-31 renal = system: UO-31 renal
# EKVX NSCLC = system: EKVX NSCLC
# HCC-2998 colon = system: HCC-2998 colon
# HCT-15 colon = system: HCT-15 colon
# IGROV1 ovarian = system: IGROV1 ovarian
# MOLT-4 leukemia = system: MOLT-4 leukemia
# NCI-H460 lung = system: NCI-H460 lung
# NCI/ADR-RES ovarian = system: NCI/ADR-RES ovarian
# OVCAR-8 ovarian = system: OVCAR-8 ovarian
# SN12C renal = system: SN12C renal
# SR leukemia = system: SR leukemia
# CAKI-1 renal = system: CAKI-1 renal
structure (smiles),measurement,setting,value
O=[N+]([O-])c1ccc2scc3c4ccccc4nc-3c2c1,GI50,786-0 renal,1.84 µM
same,TGI,786-0 renal,3.29 µM
same,GI50,A498 renal,0.509 µM
same,TGI,A498 renal,2.07 µM
same,GI50,A549 NSCLC,1.74 µM
same,TGI,A549 NSCLC,3.85 µM
same,GI50,ACHN renal,1.5 µM
same,TGI,ACHN renal,2.95 µM
same,GI50,BT-549 breast,1.73 µM
same,TGI,BT-549 breast,3.18 µM
same,GI50,CCRF-CEM leukemia,0.611 µM
same,TGI,CCRF-CEM leukemia,5.16 µM
same,GI50,COLO 205 colon,1.79 µM
same,TGI,COLO 205 colon,3.52 µM
same,GI50,DU-145 prostate,1.46 µM
same,TGI,DU-145 prostate,2.77 µM
same,GI50,HCT-116 colon,1.33 µM
same,TGI,HCT-116 colon,2.94 µM
same,GI50,HL-60(TB) leukemia,1.17 µM
same,TGI,HL-60(TB) leukemia,5.26 µM
same,GI50,HOP-62 NSCLC,1.78 µM
same,TGI,HOP-62 NSCLC,3.24 µM
same,GI50,HOP-92 NSCLC,1.66 µM
same,TGI,HOP-92 NSCLC,3.28 µM
same,GI50,HT29 colon,1.38 µM
same,TGI,HT29 colon,3.03 µM
same,GI50,K-562 leukemia,0.402 µM
same,TGI,K-562 leukemia,> 100 µM
same,GI50,KM12 colon,1.59 µM
same,TGI,KM12 colon,2.96 µM
same,GI50,LOX IMVI melanoma,1.36 µM
same,TGI,LOX IMVI melanoma,> 100 µM
same,GI50,M14 melanoma,1.85 µM
same,TGI,M14 melanoma,3.58 µM
same,GI50,MALME-3M melanoma,1.15 µM
same,TGI,MALME-3M melanoma,2.64 µM
same,GI50,MCF7 breast,1.29 µM
same,TGI,MCF7 breast,3.61 µM
same,GI50,MDA-MB-231 breast,1.65 µM
same,TGI,MDA-MB-231 breast,3.22 µM
same,GI50,MDA-MB-435,1.54 µM
same,TGI,MDA-MB-435,3.94 µM
same,GI50,NCI-H226 lung,2.22 µM
same,TGI,NCI-H226 lung,6.08 µM
same,GI50,NCI-H23 lung,1.9 µM
same,TGI,NCI-H23 lung,5.05 µM
same,GI50,NCI-H522 lung,0.342 µM
same,TGI,NCI-H522 lung,1.54 µM
same,GI50,OVCAR-3 ovarian,0.415 µM
same,TGI,OVCAR-3 ovarian,1.63 µM
same,GI50,OVCAR-4 ovarian,1.67 µM
same,TGI,OVCAR-4 ovarian,3.22 µM
same,GI50,OVCAR-5 ovarian,1.91 µM
same,TGI,OVCAR-5 ovarian,3.75 µM
same,GI50,PC-3 prostate,1.73 µM
same,TGI,PC-3 prostate,3.5 µM
same,GI50,RPMI-8226 leukemia,2.12 µM
same,TGI,RPMI-8226 leukemia,6.18 µM
same,GI50,RXF 393 renal,1.43 µM
same,TGI,RXF 393 renal,2.78 µM
same,GI50,SF-268 CNS,1.48 µM
same,TGI,SF-268 CNS,2.86 µM
same,GI50,SF-295 CNS,1.78 µM
same,TGI,SF-295 CNS,3.87 µM
same,GI50,SF-539 CNS,1.8 µM
same,TGI,SF-539 CNS,3.35 µM
same,GI50,SK-MEL-2 melanoma,1.66 µM
same,TGI,SK-MEL-2 melanoma,3.31 µM
same,GI50,SK-MEL-28 melanoma,1.72 µM
same,TGI,SK-MEL-28 melanoma,3.14 µM
same,GI50,SK-MEL-5 melanoma,1.62 µM
same,TGI,SK-MEL-5 melanoma,3.03 µM
same,GI50,SK-OV-3 ovarian,1.81 µM
same,TGI,SK-OV-3 ovarian,3.23 µM
same,GI50,SNB-19 CNS,1.96 µM
same,TGI,SNB-19 CNS,4.08 µM
same,GI50,SNB-75 CNS,1.37 µM
same,TGI,SNB-75 CNS,2.66 µM
same,GI50,SW-620 colon,0.462 µM
same,TGI,SW-620 colon,1.7 µM
same,GI50,T-47D breast,0.784 µM
same,TGI,T-47D breast,3.32 µM
same,GI50,TK-10 renal,1.08 µM
same,TGI,TK-10 renal,2.32 µM
same,GI50,U251 CNS,0.6 µM
same,TGI,U251 CNS,2 µM
same,GI50,UACC-257 melanoma,1.32 µM
same,TGI,UACC-257 melanoma,2.72 µM
same,GI50,UACC-62 melanoma,1.72 µM
same,TGI,UACC-62 melanoma,3.34 µM
same,GI50,UO-31 renal,1.16 µM
same,TGI,UO-31 renal,2.51 µM
c1cc2sc1CSCCSCCSC2,TGI,786-0 renal,> 100 µM
same,TGI,A549 NSCLC,> 100 µM
same,TGI,BT-549 breast,> 100 µM
same,TGI,CCRF-CEM leukemia,> 100 µM
same,TGI,COLO 205 colon,> 100 µM
same,TGI,DU-145 prostate,> 100 µM
same,TGI,EKVX NSCLC,> 100 µM
same,TGI,HCC-2998 colon,> 100 µM
same,TGI,HCT-116 colon,> 100 µM
same,TGI,HCT-15 colon,> 100 µM
same,TGI,HL-60(TB) leukemia,> 100 µM
same,TGI,HOP-62 NSCLC,> 100 µM
same,TGI,HOP-92 NSCLC,> 100 µM
same,TGI,HT29 colon,> 100 µM
same,TGI,IGROV1 ovarian,> 100 µM
same,TGI,K-562 leukemia,> 100 µM
same,TGI,KM12 colon,> 100 µM
same,TGI,LOX IMVI melanoma,> 100 µM
same,TGI,M14 melanoma,> 100 µM
same,TGI,MCF7 breast,> 100 µM
same,TGI,MDA-MB-231 breast,> 100 µM
same,TGI,MDA-MB-435,> 100 µM
same,TGI,MOLT-4 leukemia,> 100 µM
same,TGI,NCI-H23 lung,> 100 µM
same,TGI,NCI-H460 lung,> 100 µM
same,TGI,NCI-H522 lung,> 100 µM
same,TGI,NCI/ADR-RES ovarian,> 100 µM
same,TGI,OVCAR-3 ovarian,> 100 µM
same,TGI,OVCAR-4 ovarian,> 100 µM
same,TGI,OVCAR-5 ovarian,> 100 µM
same,TGI,OVCAR-8 ovarian,> 100 µM
same,TGI,PC-3 prostate,> 100 µM
same,TGI,SF-268 CNS,> 100 µM
same,TGI,SF-295 CNS,> 100 µM
same,TGI,SF-539 CNS,> 100 µM
same,TGI,SK-MEL-28 melanoma,> 100 µM
same,TGI,SK-MEL-5 melanoma,> 100 µM
same,TGI,SK-OV-3 ovarian,> 100 µM
same,TGI,SN12C renal,> 100 µM
same,TGI,SNB-19 CNS,> 100 µM
same,TGI,SNB-75 CNS,> 100 µM
same,TGI,SR leukemia,> 100 µM
same,TGI,SW-620 colon,> 100 µM
same,TGI,T-47D breast,> 100 µM
same,TGI,TK-10 renal,> 100 µM
same,TGI,U251 CNS,> 100 µM
same,TGI,UACC-257 melanoma,> 100 µM
same,TGI,UACC-62 melanoma,> 100 µM
same,TGI,UO-31 renal,> 100 µM
CC[C@]1(Cc2ccc(OC)c(OC)c2)[C@@H]2C[C@@H](C(=O)OC)ON2O[C@H](OC2CCCC2(c2ccccc2)c2ccccc2)[C@@H]1OC(C)=O (stereo partly drawn),TGI,786-0 renal,> 100 µM
same,TGI,A549 NSCLC,> 100 µM
same,TGI,ACHN renal,> 100 µM
same,TGI,BT-549 breast,> 100 µM
same,TGI,CAKI-1 renal,> 100 µM
same,TGI,CCRF-CEM leukemia,> 100 µM
same,TGI,COLO 205 colon,> 100 µM
same,TGI,DU-145 prostate,> 100 µM
same,TGI,EKVX NSCLC,> 100 µM
same,TGI,HCT-116 colon,> 100 µM
same,TGI,HCT-15 colon,> 100 µM
same,TGI,HOP-62 NSCLC,> 100 µM
same,TGI,HT29 colon,> 100 µM
same,TGI,IGROV1 ovarian,> 100 µM
same,TGI,K-562 leukemia,> 100 µM
same,TGI,KM12 colon,> 100 µM
same,TGI,LOX IMVI melanoma,> 100 µM
same,TGI,M14 melanoma,> 100 µM
same,TGI,MCF7 breast,> 100 µM
same,TGI,MDA-MB-231 breast,> 100 µM
same,TGI,MDA-MB-435,> 100 µM
same,TGI,MOLT-4 leukemia,> 100 µM
same,TGI,NCI-H226 lung,> 100 µM
same,TGI,NCI-H23 lung,> 100 µM
same,TGI,NCI-H460 lung,> 100 µM
same,TGI,NCI/ADR-RES ovarian,> 100 µM
same,TGI,OVCAR-3 ovarian,> 100 µM
same,TGI,OVCAR-5 ovarian,> 100 µM
same,TGI,OVCAR-8 ovarian,> 100 µM
same,TGI,RXF 393 renal,> 100 µM
same,TGI,SF-268 CNS,> 100 µM
same,TGI,SF-295 CNS,> 100 µM
same,TGI,SK-MEL-2 melanoma,> 100 µM
same,TGI,SK-MEL-28 melanoma,> 100 µM
same,TGI,SK-MEL-5 melanoma,> 100 µM
same,TGI,SK-OV-3 ovarian,> 100 µM
same,TGI,SN12C renal,> 100 µM
same,TGI,SNB-19 CNS,> 100 µM
same,TGI,SNB-75 CNS,> 100 µM
same,TGI,SR leukemia,> 100 µM
same,TGI,SW-620 colon,> 100 µM
same,TGI,T-47D breast,> 100 µM
same,TGI,TK-10 renal,> 100 µM
same,TGI,U251 CNS,> 100 µM
same,TGI,UACC-257 melanoma,> 100 µM
same,TGI,UACC-62 melanoma,> 100 µM
same,TGI,UO-31 renal,> 100 µM
